Laboratory results as given in patent publication US20130072899A1, “Pharmaceutical Formulations for Iontophoretic Delivery of Gallium” (Nitric BloTherapeutics, Inc., priority 2008, published 2013).

Assays:
[1] = 25° C., 0.01M; cited from earlier work
[2] = Effect of pH on skin permeability (tritiated water permeation, Franz cells); format: in vitro ADME, human; details: 70 h passive permeation

SMILES | Log β (stability constant) [1] | average radioactive count in the receiver compartment ([2]; pH 2) [DPM/mL] | average radioactive count in the receiver compartment ([2]; pH 5) [DPM/mL]
[OH][Ga+2] [GaOH^++] | −2.9 |  | 
[Ga+3].[OH-].[OH-].[OH-] [Ga(OH)3] | −11.0 |  | 
[OH][Ga+][OH] [Ga(OH)2^+] | −6.6 |  | 
O=C([O-])CC(O)(CC(=O)[O-])C(=O)[O-].[Ga+3] [Ga citrate] | 10.02 |  | 
[3H]O[3H] [tritiated water, Tritiated water] |  | 55860±25106 | 60557±20376
[OH][Ga-]([OH])([OH])[OH] [Ga(OH)4^−] | −15.66 |  | 
